# Values quoted from earlier work, collected in US4039519A, “Broad spectrum antibiotics and method” (Chimie & Biologie, priority 1975, dated 1977).
# Settings: oral administration; cited from earlier work
substance,measurement,value
colistine,passage of the gastro-intestinal barrier (known),cannot pass the gastro-intestinal barrier
